Where a SMILES comes first, the peptide text is derived from it.
Point of comparison: `ClCC1(CCl)C2CC(Cl)(Cl)C1(CCl)C(Cl)C2Cl` (stereo not given), logP 5.23. Against it:
- CCCc1nc(N2CCOCC2)nc(N(C)C(=O)c2ccccc2)n1 — lower, 2.01
- ClCC1(CCl)C2C(Cl)C(Cl)C1(CCl)C(Cl)(Cl)C2Cl (stereo not given) — higher, 5.74
- CCOC(=O)c1cnc2ccc(C)cn2c1=O — lower, 0.9
- CC(C)CC(NC(=O)C(N)Cc1c[nH]c2ccccc12)C(=O)O (stereo not given) — lower, -0.73
- CCCCCN(CCCCC)CC(O)c1ccccc1 (stereo not given) — lower, 2.86
- O=C1C=C(N2CCCCCC2)CN1c1ccc(Cl)cc1 — lower, 3.4
- O=C1Nc2ccc(Cl)cc2C(c2ccccc2F)=NC1O (stereo not given) — lower, 1.81
- CCNc1ccncc1S(=O)(=O)NC(=NC#N)NC(C)C — lower, -0.24
- OCCN1CCN(CCCOn2nnc3ccccc32)CC1 — lower, 0.43
- Cn1nc(C(F)(F)F)n(-c2ccccc2)c1=S — lower, 2.58
- Cc1cc2c(o1)c(C)cc1c(C)cc(=O)n(C)c12 — lower, 3.43
- CON(C)C(=O)Nc1ccc(NS(C)(=O)=O)cc1 — lower, 0.14
- CC(C)CC(N)C(=O)NC(CC(C)C)C(=O)NCC(=O)NC(Cc1ccccc1)C(=O)O (stereo not given) (H-LLGF-OH; configuration not given here) — lower, -0.42
- COc1cc(OC)nc(Oc2cccc(Oc3ccccc3)c2C(=O)O)n1 — lower, 3.43
- Nc1nc(N)c2c(Oc3ccccc3)cccc2n1 — lower, 2.78
- CC1NCCc2c1[nH]c1ccccc21 (stereo not given) — lower, 2.06
- C=C(C)C(=O)OCC(COC(=O)C(=C)C)COC(=O)C(=C)C — lower, 3.53
- COc1ccccc1-n1nnnc1N — lower, 0.56
- CC(C)CC(NC(=O)C(CC(C)C)NC(=O)C(C)NC(=O)C(C)NC(=O)CN)C(=O)O (stereo not given) (H-GAALL-OH; configuration not given here) — lower, -2.55
- Clc1ccc2oc3c(Cl)c(Cl)cc(Cl)c3c2c1 — higher, 6.13
- CCC(C)C(NC(=O)C(NC(=O)C(N)CC(C)C)C(C)O)C(=O)O (stereo not drawn) (H-Leu-Thr-Ile-OH; configuration not given here) — lower, -2.3
- CCN(CC)CC(=O)Nc1ccccc1 — lower, 2.49
- CC(C)c1cccc(O)c(=O)c1 — lower, 1.82
- O=C(NC1CCCCCC1)NS(=O)(=O)c1cnccc1NC1CCCCCC1 — lower, 4.96

— the OPERA property sets (Mansouri et al. 2018)
